The source of these data is patent publication US20140017336A1, “CO-ADMINISTRATION OF ARSENIC COMPOUNDS AND ANTI-HERPES VIRUS ANTI-VIRALS” (priority 2011, published 2014).

Where only a bound is given, the exact number is not on record here.

In one data set the test system is Zta mRNA. Put plainly: Zta mRNA transcription in LCL<EBV1-13> cells. Conditions: three days, 10 nM ATO. It is filed as cell-based, Epstein-Barr virus. Here is the method:
FIGS. 8A-D. B-cells recently isolated from a patient were infected with EBV, allowed to grow out for several generations (only the EBV-infected cells would be able to grow out), and frozen until use. FIGS. 8A and B. FIGS. 8A and B graph the relative percent of viability of EBV-infected B-cells as just described (LCL<EBV1-13> cells) thawed and grown in one of: media alone (“control”), media and 45 μM ganciclovir (GCV), media and […] arsenic trioxide (ATO), or media and a combination of these concentrations of GCV and ATO. The bars show the relative viability of cells after 2 days of this treatment (“2 D,” FIG. 8A), and at three days (“3 D,” FIG. 8B). FIG. 8C. Epstein-Barr nuclear antigen (“EBNA”) driven by the C promoter (“Cp”) is transcribed only during the latent phase of the virus. FIG. 8C graphs the relative expression of EBNA Cp mRNA of LCL<EBV1-13> cells grown three days (“3 D”) in media alone (“control”), media and 45 μM ganciclovir (GCV), media and 10 nM arsenic trioxide (ATO), or media and a combination of these concentrations of GCV and ATO. […] FIG. 8D. FIG. 8D graphs the relative transcription of the viral immediate early protein Zta mRNA of LCL<EBV1-13> cells grown three days (“3 D”) in media alone (“control”), media and 45 μM ganciclovir (GCV), media and 10 nM arsenic trioxide (ATO), or media and a combination of these concentrations of GCV and ATO. […]

The subject of data set [1] is MUTU1<DNE1> cells (EBV-negative). Kind of data set: Viable cell count (trypan blue exclusion), MUTU1<DNE1> cells. It counts as cell-based, human. To be noted: 10 nM or 100 nM ATO, 2 and 3 days.
For data set [2] the following is noted: dosage of ATO approved for relapsed or refractory acute promyelocytic leukemia (Fox et al., 2008); cited from earlier work.
A further data set concerns EBV Zta mRNA. It is filed as cell-based, Epstein-Barr virus. Conditions: 72 hours, qRT-PCR. In general terms: In qPCR the cycle at which signal appears reflects the starting amount.
Data set [3] relates to EBV immediate early protein Zta. Kind of data set: Zta immunofluorescence in CNE1<EBV-BX1> cells. It is filed as cell-based, Epstein-Barr virus. To be noted: 1 nM ATO with or without 40 μM GCV, 3 days. Here is the method: A549 cells were plated on 8-chambered Lab-Tek slides at 3×10^4 cells per well; chemical treatment began 24 hours after plating. At specified time points, cells were rinsed twice with PBS and fixed in 4% paraformaldehyde (freshly diluted from 16%, Electron Microscopy Science, Hatfield, Pa.) for 10 min at room temperature. The cells were then rinsed twice with PBS and permeabilized with 0.5% Triton™ X100 (Sigma) in PBS for 15 min at room temperature. Primary antibodies were applied at specified concentrations overnight in a humidified chamber at 4° C. Following 3 rinses in PBS, secondary antibodies were diluted 1:500 and applied for 1 hour at room temperature. The chambers were removed and Vectashield® with DAPI (Vector Laboratories, Burlingame, Calif. #H1200) was applied with cover slip mount. […]
To more specifically investigate the effects of disruption of PML NB on ZTA expression, siRNA directed against the PML transcript or a control siRNA were transfected into CNE1<BX1> cells. At day 4 post transfection, PML and Zta expression were analyzed using immunofluorescence. […] EBV infected and uninfected parental CNE1 cells were transfected with siRNA against the PML transcript or control siRNA cultured in the presence or absence of 40 μM GCV for 7 days and cells were counted in order to investigate whether disruption of PML NBs using siRNA induced GCV susceptibility. […]

Turning to arsenic trioxide [ATO], in the data set on Zta mRNA, the “relative transcription of Zta mRNA” value is on record as “approximately fourfold higher”. Also, in data set [1], the “viable cells, EBV-negative MUTU cells” value is “No effect”. The “peak serum arsenic level” value in data set [2] was roughly 400 nM. The “ATO concentration inducing an increase in Zta mRNA” value with EBV Zta mRNA is on record as no less than 12.5 nM. Further, in data set [3], the “number of Zta positive cells” value is listed as “increased the number of cells that were Zta positive”.
